Assay results taken from US20240366523A1, “PATCH AND PRODUCTION METHOD THEREOF” (KANEKA CORPORATION, priority 2021, published 2024).

Test: Kinematic viscosity of non-volatile hydrocarbon oil
Format: physicochemical
Conditions: viscosity measuring temperature 40 ° C.
Source text: The “kinematic viscosity” is a value obtained by converting a viscosity (mPa·s) measured according to “Method II Viscosity measurement by rotational viscometer (2.12 Single cylinder-type rotational viscometer (Brookfield type viscometer)” in “2.53 Viscosity Determination” of General Tests in “Japanese Pharmacopoeia 17th Edition” into a kinematic viscosity.

Kinematic viscosity: 20.5 mm^2/s
SMILES: CC(C)CCCC(C)CCCC(C)CCCCC(C)CCCC(C)CCCC(C)C (stereo not shown) [SQUALANE]
